# “And” between values parts separate entries of the source, which are not always exact repeats. Identical values can stand only once.
# How the values were obtained:
# [1] = BBB permeation by parallel artificial membrane permeability assay (PAMPA); assay type: in vitro ADME; conditions: for Prediction (BBB permeation): PAMPA-BBB class from Pe; for Papp: PAMPA-BBB, read-out: Experimental Pe
# From the text: The CNS bioavailability of the lead candidates was further ascertained by PAMPA method [31].
# [2] = set-up: method as in PMID 12667689; conditions: PAMPA-BBB ref 31; cited from earlier work
# MAO-B [3] = biological target: T1, MAO-B (Homo sapiens, UniProt P27338); assay: Reversibility of MAO-B inhibition by dialysis; assay type: biochemical; conditions: test compounds […], lazabemide 0.20 µM, pargyline 0.30 µM
# T1 sequence (P27338 1-520): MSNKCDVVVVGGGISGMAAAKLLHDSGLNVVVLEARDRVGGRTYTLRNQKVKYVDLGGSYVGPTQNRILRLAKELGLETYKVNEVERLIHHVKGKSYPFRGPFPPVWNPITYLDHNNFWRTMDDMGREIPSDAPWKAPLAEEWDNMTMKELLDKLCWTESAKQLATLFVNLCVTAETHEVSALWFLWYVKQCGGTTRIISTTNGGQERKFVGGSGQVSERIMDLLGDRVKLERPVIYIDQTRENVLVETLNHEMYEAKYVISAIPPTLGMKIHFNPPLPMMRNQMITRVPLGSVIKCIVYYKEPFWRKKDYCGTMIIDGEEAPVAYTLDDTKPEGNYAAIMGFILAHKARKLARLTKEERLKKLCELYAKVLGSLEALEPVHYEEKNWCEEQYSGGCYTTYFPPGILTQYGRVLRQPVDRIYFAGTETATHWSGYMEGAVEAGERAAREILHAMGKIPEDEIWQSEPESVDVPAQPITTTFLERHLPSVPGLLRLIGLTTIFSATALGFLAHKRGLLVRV
# Procedure: The reversibilities of MAO-B inhibitions by TM1 and TM8 were assessed by dialysis. […] Reversibility patterns were determined by comparing the activities of dialyzed (AD) and undialyzed (AU) samples.
# recombinant human MAO-A = biological target: T2, recombinant human MAO-A (Homo sapiens, UniProt P21397); assay: MAO-A enzyme inhibition (kynuramine substrate, 316 nm); conditions: for remaining activity at 10 µM: read-out: Residual Activity at 10 µM (%) MAO-A
# T2 sequence (P21397 1-527): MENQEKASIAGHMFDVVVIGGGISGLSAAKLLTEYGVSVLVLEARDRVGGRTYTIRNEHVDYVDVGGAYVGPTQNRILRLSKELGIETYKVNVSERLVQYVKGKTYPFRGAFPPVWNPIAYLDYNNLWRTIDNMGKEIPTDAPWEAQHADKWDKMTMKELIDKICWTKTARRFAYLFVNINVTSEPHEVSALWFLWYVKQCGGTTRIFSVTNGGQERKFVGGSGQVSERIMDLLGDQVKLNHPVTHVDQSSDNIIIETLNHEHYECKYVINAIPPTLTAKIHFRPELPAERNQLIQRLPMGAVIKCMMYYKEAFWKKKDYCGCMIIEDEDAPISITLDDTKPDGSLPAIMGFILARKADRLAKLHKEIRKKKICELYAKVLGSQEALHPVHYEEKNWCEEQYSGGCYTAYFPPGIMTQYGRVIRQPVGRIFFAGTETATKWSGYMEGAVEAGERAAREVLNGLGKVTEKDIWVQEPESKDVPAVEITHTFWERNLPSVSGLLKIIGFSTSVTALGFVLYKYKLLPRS
# Procedure: (§1) MAO activity assays were performed using recombinant human MAO-A or MAO-B.
# (§2) IC50 values were determined by measuring residual enzyme activities.
# MAO-B [4] = biological target: T1, MAO-B; assay: MAO-B enzyme inhibition (benzylamine substrate, 250 nm); conditions: for SI (hMAO-B selectivity index): IC50(hMAO-A) divided by IC50(hMAO-B); for remaining activity at 10 µM: read-out: Residual Activity at 10 µM (%) MAO-B; for Times more potent than pargyline (MAO-B) / Times more potent than the reference drug lazabemide (MAO-B): ratio of MAO-B IC50 values
# Procedure: as §1, §2
# MAO-B [5] = biological target: MAO-B; set-up: method as in PMID 28577983; conditions: methoxylated chalcones previously reported ref 30; cited from earlier work
Structure (SMILES),MAO-B activity of dialyzed sample (AD) (MAO-B [3]; after dialysis),MAO-B activity of undialyzed sample (AU) (MAO-B [3]; preincubated 30 min),IC50 (recombinant human MAO-A),remaining activity at 10 µM (recombinant human MAO-A),IC50 (MAO-B [4]),SI (hMAO-B selectivity index) (MAO-B [4]),remaining activity at 10 µM (MAO-B [4]),Papp [1],Times more potent than pargyline (MAO-B) (MAO-B [4]),Times more potent than the reference drug lazabemide (MAO-B) (MAO-B [4]),Prediction (BBB permeation) [1],Bibliography Pe [2],Ki (MAO-B [5]),SI for MAO-B (MAO-B [5])
"NCCc1ccc(O)c(O)c1 [Dopamine, reference compound]",,,,,,,,,,,CNS− (CNS− (low BBB permeation predicted): Pe (10^−6 cm·s^−1) < 2.00),2e-07 cm/s,,
"NCCNC(=O)c1ccc(Cl)cn1 [Lazabemide, reference compound]",74.9%,16.6%,,,,,,,,,,,,
"CCn1cc(C(=O)O)c(=O)c2cc(F)c(N3CCNC(C)C3)c(F)c21 (stereo not drawn) [Lomefloxacin, reference compound]",,,,,,,,1.22 ± 0.02 ×10⁻⁶ cm/s,,,CNS− (CNS− (low BBB permeation predicted): Pe (10^−6 cm·s^−1) < 2.00),,,
COc1ccc(C(=O)/C=C/c2ccccc2)cc1 [Compound C1],,,,,,,,,,,,,700 ± 50 nM,5.07
CSc1ccc(C(=O)/C=C/c2ccc(O)cc2)cc1 [TM2],,,7.45 ± 0.25 µM,48.3 ± 2.4%,21 ± 3 nM,354.8,-5.7 ± 5.3%,13.3 ± 0.8 ×10⁻⁶ cm/s,1.3 times,3.0 times,CNS+ (CNS+ (high BBB permeation predicted): Pe (10^−6 cm·s^−1) > 4.00),,,

# Continued, in another order:
MAO-B activity of dialyzed sample (AD) (MAO-B [3]; after dialysis),MAO-B activity of undialyzed sample (AU) (MAO-B [3]; preincubated 30 min),IC50 (recombinant human MAO-A),remaining activity at 10 µM (recombinant human MAO-A),IC50 (MAO-B [4]),SI (hMAO-B selectivity index) (MAO-B [4]),remaining activity at 10 µM (MAO-B [4]),Papp [1],Times more potent than pargyline (MAO-B) (MAO-B [4]),Times more potent than the reference drug lazabemide (MAO-B) (MAO-B [4]),Structure (SMILES),Prediction (BBB permeation) [1],Bibliography Pe [2],Ki (MAO-B [5]),SI for MAO-B (MAO-B [5])
,,33.6 ± 2.56 µM,74.7%,88 ± 6 nM,381.8,7.5 ± 2.1%,,,,CSc1ccc(C(=O)/C=C/c2ccc(Br)cc2)cc1 [TM9],,,,
,,13.7 ± 1.22 µM,57.9 ± 6%,26 ± 4 nM,526.9,-0.4 ± 2.7%,15.2 ± 0.44 ×10⁻⁶ cm/s,almost as potent as pargyline,2.4 times,CSc1ccc(C(=O)/C=C/c2ccc(F)cc2)cc1 [TM10],CNS+ (CNS+ (high BBB permeation predicted): Pe (10^−6 cm·s^−1) > 4.00),,,
,,30 ± 3.02 µM,66.1 ± 2.6%,23 ± 1 nM,1304 and 1304.3,6 ± 1.9%,15.5 ± 0.71 ×10⁻⁶ cm/s,almost as potent as pargyline,2.7 times,CSc1ccc(C(=O)/C=C/c2ccc([N+](=O)[O-])cc2)cc1 [TM7],CNS+ (CNS+ (high BBB permeation predicted): Pe (10^−6 cm·s^−1) > 4.00),,,
,,25.2 ± 0.14 µM,79.5 ± 0.7%,81 ± 32 nM,311.1,7.4 ± 1.2%,,,,CSc1ccc(C(=O)/C=C/c2ccc(C(F)(F)F)cc2)cc1 [TM11],,,,
